Laboratory results reported in patent publication US20260015358A1, “BICYCLIC DERIVATIVES, COMPOSITIONS AND USES THEREOF” (Danatlas Pharmaceuticals Co., Ltd., priority 2023, published 2026).

What was measured:
[1] = molecular target: T1, WRN [UniPro: Q14191 (WRN_HUMAN), N500-C946] (Homo sapiens (Human), UniProt Q14191); assay: WRN unwinding assay (FORKF DNA, fluorescence); assay type: biochemical; conditions: Table 14
[2] = molecular target: T1, WRN [UniPro: Q14191 (WRN_HUMAN), N500-C946]; assay: WRN ATPase assay (ADP-Glo); assay type: biochemical; conditions: WRN enzymatic activity assay

T1 sequence (Q14191 500-946): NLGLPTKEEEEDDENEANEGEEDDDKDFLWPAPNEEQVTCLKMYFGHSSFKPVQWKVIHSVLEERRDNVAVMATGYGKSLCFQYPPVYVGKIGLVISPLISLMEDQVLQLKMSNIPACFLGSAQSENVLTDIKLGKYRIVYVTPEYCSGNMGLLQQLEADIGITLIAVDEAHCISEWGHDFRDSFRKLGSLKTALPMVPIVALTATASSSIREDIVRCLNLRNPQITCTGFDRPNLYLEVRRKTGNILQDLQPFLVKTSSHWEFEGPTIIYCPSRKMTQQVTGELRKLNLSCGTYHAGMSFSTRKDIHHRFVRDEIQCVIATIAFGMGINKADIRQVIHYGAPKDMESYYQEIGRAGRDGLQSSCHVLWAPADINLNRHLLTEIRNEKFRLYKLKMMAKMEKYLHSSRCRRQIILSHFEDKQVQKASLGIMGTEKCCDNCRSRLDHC

| IC50 [1] [nM] | IC50 [2] [nM] | Structure (SMILES) |
| --- | --- | --- |
| < 100 | < 100 | CCc1c(N2CCN(C(=O)CNC(=O)c3cccc(F)c3)CC2)c(=O)n2nc(C3=CCOCC3)nc2n1CC(=O)Nc1ccc(C(F)(F)F)cc1Cl [Example 99, N-(2-(4-(4-(2-((2-Chloro-4-(trifluoromethyl)phenyl)amino)-2-oxoethyl)-2-(3,6-dihydro-2H-pyran-4-yl)-5-ethyl-7-oxo-4,7-dihydro-[1,2,4]triazolo[1,5-a]pyrimidin-6-yl)piperazin-1-yl)-2-oxoethyl)-3-fluorobenzamide] |
| < 100 | < 100 | CCc1c(N2CCN(C(=O)CNC(=O)c3ccccc3F)CC2)c(=O)n2nc(C3=CCOCC3)cc2n1CC(=O)Nc1ccc(C(F)(F)F)cc1Cl [Example 343, N-(2-(4-(4-(2-((2-Chloro-4-(trifluoromethyl)phenyl)amino)-2-oxoethyl)-2-(3,6-dihydro-2H-pyran-4-yl)-5-ethyl-7-oxo-4,7-dihydropyrazolo[1,5-a]pyrimidin-6-yl)piperazin-1-yl)-2-oxoethyl)-2-fluorobenzamide] |
| 100 to 1000 | 100 to 1000 | CCc1c(N2CCN(S(N)(=O)=O)CC2)c(=O)n2nc(C3=CCOCC3)nc2n1CC(=O)Nc1ccc(C(F)(F)F)cc1Cl [Example 28, N-(2-Chloro-4-(trifluoromethyl)phenyl)-2-(2-(3,6-dihydro-2H-pyran-4-yl)-5-ethyl-7-oxo-6-(4-sulfamoylpiperazin-1-yl)-[1,2,4]triazolo[1,5-a]pyrimidin-4(7H)-yl)acetamide] |
| 100 to 1000 | 100 to 1000 | CCc1c(N2CCN(C(=O)CNC(=O)c3ccccc3F)CC2)c(=O)n2nc(C3=CCOCC3)nc2n1CC(=O)Nc1cc(C(F)(F)F)n(C)n1 [Example 162, N-(2-(4-(2-(3,6-Dihydro-2H-pyran-4-yl)-5-ethyl-4-(2-((1-methyl-5-(trifluoromethyl)-1H-pyrazol-3-yl)amino)-2-oxoethyl)-7-oxo-4,7-dihydro-[1,2,4]triazolo[1,5-a]pyrimidin-6-yl)piperazin-1-yl)-2-oxoethyl)-2-fluorobenzamide] |
| < 100 | < 100 | CCc1c(N2CCN(C(=O)CNC(=O)c3ccn(C)n3)CC2)c(=O)n2nc(C3=CCOCC3)nc2n1CC(=O)Nc1ccc(C(F)(F)F)cc1Cl [Example 102, N-(2-(4-(4-(2-((2-Chloro-4-(trifluoromethyl)phenyl)amino)-2-oxoethyl)-2-(3,6-dihydro-2H-pyran-4-yl)-5-ethyl-7-oxo-4,7-dihydro-[1,2,4]triazolo[1,5-a]pyrimidin-6-yl)piperazin-1-yl)-2-oxoethyl)-1-methyl-1H-pyrazole-3-carboxamide] |
| < 100 | < 100 | CCc1c(N2CCN(C(=O)CNC(=O)c3ccnn3C)CC2)c(=O)n2nc(C3=CCOCC3)nc2n1CC(=O)Nc1ccc(C(F)(F)F)cc1Cl [Example 114, N-(2-(4-(4-(2-((2-Chloro-4-(trifluoromethyl)phenyl)amino)-2-oxoethyl)-2-(3,6-dihydro-2H-pyran-4-yl)-5-ethyl-7-oxo-4,7-dihydro-[1,2,4]triazolo[1,5-a]pyrimidin-6-yl)piperazin-1-yl)-2-oxoethyl)-1-methyl-1H-pyrazole-5-carboxamide] |
| > 1000 | 100 to 1000 | CCc1c(N2CCN(C(=O)c3c(OC)cn[nH]c3=O)CC2)c(=O)n2nc(C3=CCOCC3)nc2n1CC(=O)Nc1ccc(C(F)(F)F)cc1Cl [Example 314, N-(2-Chloro-4-(trifluoromethyl)phenyl)-2-(2-(3,6-dihydro-2H-pyran-4-yl)-5-ethyl-6-(4-(3-hydroxy-5-methoxypyridazine-4-carbonyl)piperazin-1-yl)-7-oxo-[1,2,4]triazolo[1,5-a]pyrimidin-4(7H)-yl)acetamide] |
| < 100 | < 100 | CCc1c(N2CCN(C(=O)CNC(=O)c3c(F)cccc3Cl)CC2)c(=O)n2nc(C3=CCOCC3)nc2n1CC(=O)Nc1ccc(C(F)(F)F)cc1Cl [Example 319, 2-Chloro-N-(2-(4-(4-(2-((2-chloro-4-(trifluoromethyl)phenyl)amino)-2-oxoethyl)-2-(3,6-dihydro-2H-pyran-4-yl)-5-ethyl-7-oxo-4,7-dihydro-[1,2,4]triazolo[1,5-a]pyrimidin-6-yl)piperazin-1-yl)-2-oxoethyl)-6-fluorobenzamide] |
| < 100 | < 100 | CCc1c(N2CCN(C(=O)CNC(=O)c3nccs3)CC2)c(=O)n2nc(C3=CCOCC3)nc2n1CC(=O)Nc1ccc(C(F)(F)F)cc1F [Example 216, N-(2-(4-(2-(3,6-Dihydro-2H-pyran-4-yl)-5-ethyl-4-(2-((2-fluoro-4-(trifluoromethyl)phenyl)amino)-2-oxoethyl)-7-oxo-4,7-dihydro-[1,2,4]triazolo[1,5-a]pyrimidin-6-yl)piperazin-1-yl)-2-oxoethyl)thiazole-2-carboxamide] |
| < 100 | 100 to 1000 | CCc1c(N2CCN(C(=O)C(=O)N(C)C)CC2)c(=O)n2nc(C3=CCOCC3)nc2n1CC(=O)Nc1ccc(C(F)(F)F)cc1Cl [Example 326, 2-(4-(4-(2-((2-Chloro-4-(trifluoromethyl)phenyl)amino)-2-oxoethyl)-2-(3,6-dihydro-2H-pyran-4-yl)-5-ethyl-7-oxo-4,7-dihydro-[1,2,4]triazolo[1,5-a]pyrimidin-6-yl)piperazin-1-yl)-N,N-dimethyl-2-oxoacetamide] |
| < 100 | < 100 | CCc1c(N2CCN(C(=O)CNC(=O)c3ncccc3F)CC2)c(=O)n2nc(C3=CCOCC3)nc2n1CC(=O)Nc1ccc(C(F)(F)F)cc1Cl [Example 133, N-(2-(4-(4-(2-((2-Chloro-4-(trifluoromethyl)phenyl)amino)-2-oxoethyl)-2-(3,6-dihydro-2H-pyran-4-yl)-5-ethyl-7-oxo-4,7-dihydro-[1,2,4]triazolo[1,5-a]pyrimidin-6-yl)piperazin-1-yl)-2-oxoethyl)-3-fluoropicolinamide] |
| < 100 | < 100 | CCc1c(N2CCN(C(=O)CNC(=O)c3cscn3)CC2)c(=O)n2nc(C3=CCOCC3)nc2n1CC(=O)Nc1ccc(C(F)(F)F)cc1Cl [Example 129, N-(2-(4-(4-(2-((2-Chloro-4-(trifluoromethyl)phenyl)amino)-2-oxoethyl)-2-(3,6-dihydro-2H-pyran-4-yl)-5-ethyl-7-oxo-4,7-dihydro-[1,2,4]triazolo[1,5-a]pyrimidin-6-yl)piperazin-1-yl)-2-oxoethyl)thiazole-4-carboxamide] |
| < 100 | < 100 | CCc1c(N2CCN(C(=O)c3cnn4cncc4c3O)CC2)c(=O)n2nc(C3=CCOCC3)nc2n1CC(=O)Nc1ccc(C(F)(F)F)cc1Cl [Example 201, N-(2-Chloro-4-(trifluoromethyl)phenyl)-2-(2-(3,6-dihydro-2H-pyran-4-yl)-5-ethyl-6-(4-(4-hydroxyimidazo[1,5-b]pyridazine-3-carbonyl)piperazin-1-yl)-7-oxo-[1,2,4]triazolo[1,5-a]pyrimidin-4(7H)-yl)acetamide] |
| < 100 | < 100 | CCc1c(N2CCN(C(=O)CNC(=O)c3cccc(NC)c3)CC2)c(=O)n2nc(C3=CCOCC3)nc2n1CC(=O)Nc1ccc(C(F)(F)F)cc1Cl [Example 277, N-(2-(4-(4-(2-((2-Chloro-4-(trifluoromethyl)phenyl)amino)-2-oxoethyl)-2-(3,6-dihydro-2H-pyran-4-yl)-5-ethyl-7-oxo-4,7-dihydro-[1,2,4]triazolo[1,5-a]pyrimidin-6-yl)piperazin-1-yl)-2-oxoethyl)-3-(methylamino)benzamide] |
